Measured values reported in patent publication US20040091407A1, “Novel process for preparing crystalline particles” (priority 2000, published 2004).

Test: Particle size measurement using a Malvern Particle Sizer S
Assay type: physicochemical
Details: crystalline particles of the calcium salt monohydrate prepared by sonocrystallisation
Description: Particle size of the two samples were measured using a Malvern Particle Sizer S. The (v0.5) values are as shown below: […]

D(v,0.5) particle size [microns]	Structure (SMILES)
32.2	C/C(=C/C(=O)c1ccccc1)N[C@@H](Cc1ccc(OCCc2nc(-c3ccccc3)oc2C)cc1)C(=O)[O-].C/C(=C/C(=O)c1ccccc1)N[C@@H](Cc1ccc(OCCc2nc(-c3ccccc3)oc2C)cc1)C(=O)[O-].[Ca+2] [Sample 1, calcium salt of (2S)-2-{[(Z)-1-methyl-3-oxo-3-phenyl-1-propenyl]amino}-3-{4-[2-(5-methyl-2-phenyl-1,3-oxazol-4-yl)ethoxy]phenyl}propanoic acid]
42.3	C/C(=C/C(=O)c1ccccc1)N[C@@H](Cc1ccc(OCCc2nc(-c3ccccc3)oc2C)cc1)C(=O)[O-].C/C(=C/C(=O)c1ccccc1)N[C@@H](Cc1ccc(OCCc2nc(-c3ccccc3)oc2C)cc1)C(=O)[O-].[Ca+2] [Sample 2, calcium salt of (2S)-2-{[(Z)-1-methyl-3-oxo-3-phenyl-1-propenyl]amino}-3-{4-[2-(5-methyl-2-phenyl-1,3-oxazol-4-yl)ethoxy]phenyl}propanoic acid]
